Laboratory results published in the NIST ThermoML archive (doi:10.1016/j.jct.2017.11.003).

Assay: xn = mol fraction of the nth substance listed
Conditions: 100 kPa, Liquid; for speed of sound: Frequency=2 MHz, Linear variable-path acoustic interferometer; for mass density: Vibrating tube method

Cc1ccccc1Cl [2-chlorotoluene] + CCCCCCCCCO
Conditions | mass density, 293.15 K [kg/m3] | mass density, 298.15 K [kg/m3] | mass density, 303.15 K [kg/m3] | mass density, 308.15 K [kg/m3] | speed of sound, 293.15 K [m/s] | speed of sound, 298.15 K [m/s] | speed of sound, 303.15 K [m/s] | speed of sound, 308.15 K [m/s]
x1 = 0.0846 | 843 | 840 | 836 | 832 | 1375.9 | 1360.1 | 1348.7 | 1325.2
x1 = 0.1974 | 864 | 861 | 857 | 853 | 1367.7 | 1351.5 | 1339.2 | 1315.5
x1 = 0.2911 | 883 | 880 | 876 | 872 | 1359.7 | 1342.9 | 1329.6 | 1305.8
x1 = 0.3964 | 906 | 902 | 898 | 894 | 1349.9 | 1331.9 | 1318.6 | 1294
x1 = 0.4896 | 928 | 924 | 920 | 915 | 1341.3 | 1322.3 | 1308.2 | 1284
x1 = 0.5943 | 954 | 950 | 946 | 941 | 1331.5 | 1312.2 | 1298 | 1273.4
x1 = 0.6918 | 981 | 976 | 972 | 967 | 1324 | 1304.4 | 1290 | 1265.8
x1 = 0.7948 | 1011 | 1007 | 1002 | 997 | 1318 | 1298.5 | 1284 | 1260.8
x1 = 0.898 | 1045 | 1040 | 1036 | 1031 | 1315.2 | 1297 | 1280.7 | 1259.9
x1 = 1 | 1082 | 1077 | 1073 | 1068 | 1317 | 1299.7 | 1283.9 | 1265.8

Cc1cccc(Cl)c1 [3-chlorotoluene] + CCCCCCCCCO
Conditions | mass density, 293.15 K [kg/m3] | mass density, 298.15 K [kg/m3] | mass density, 303.15 K [kg/m3] | mass density, 308.15 K [kg/m3] | speed of sound, 293.15 K [m/s] | speed of sound, 298.15 K [m/s] | speed of sound, 303.15 K [m/s] | speed of sound, 308.15 K [m/s]
x1 = 0.0967 | 844 | 841 | 838 | 834 | 1374.3 | 1357.5 | 1345.4 | 1320.9
x1 = 0.1893 | 861 | 858 | 854 | 850 | 1366.3 | 1348.2 | 1335.6 | 1310.1
x1 = 0.2985 | 883 | 879 | 875 | 871 | 1355.3 | 1336.2 | 1323 | 1297.4
x1 = 0.3926 | 902 | 898 | 894 | 890 | 1345 | 1325.6 | 1310.9 | 1286
x1 = 0.4834 | 923 | 919 | 914 | 910 | 1335.2 | 1315.2 | 1300 | 1275.7
x1 = 0.5953 | 950 | 945 | 941 | 937 | 1323.7 | 1303.7 | 1288.3 | 1264.9
x1 = 0.6918 | 975 | 970 | 966 | 961 | 1315.7 | 1296 | 1280.3 | 1257.6
x1 = 0.7946 | 1004 | 1000 | 995 | 990 | 1310.2 | 1291.2 | 1274.7 | 1254
x1 = 0.8963 | 1036 | 1031 | 1027 | 1022 | 1308.7 | 1290.7 | 1273.6 | 1253.9
x1 = 1 | 1072 | 1067 | 1063 | 1058 | 1313.8 | 1296.5 | 1279.5 | 1261.2

CCCCCCCCCO [nonan-1-ol] + ClCCCl
Conditions | mass density, 293.15 K [kg/m3] | mass density, 298.15 K [kg/m3] | mass density, 303.15 K [kg/m3] | mass density, 308.15 K [kg/m3] | speed of sound, 293.15 K [m/s] | speed of sound, 298.15 K [m/s] | speed of sound, 303.15 K [m/s] | speed of sound, 308.15 K [m/s]
x2 = 0 | 828 | 824 | 821 | 818 | 1380.5 | 1364.7 | 1348.1 | 1330.5
x2 = 0.0922 | 845 | 841 | 838 | 834 | 1357.5 | 1341.4 | 1329.7 | 1305.2
x2 = 0.2067 | 869 | 866 | 862 | 858 | 1332.2 | 1315.5 | 1301.2 | 1277.5
x2 = 0.2984 | 892 | 888 | 884 | 880 | 1313.7 | 1296.8 | 1280.6 | 1257.8
x2 = 0.406 | 922 | 918 | 914 | 909 | 1293.1 | 1275.5 | 1258 | 1235
x2 = 0.4896 | 950 | 946 | 941 | 936 | 1277.3 | 1260.3 | 1242.2 | 1219
x2 = 0.6039 | 994 | 989 | 984 | 979 | 1258.2 | 1240.6 | 1221.4 | 1199
x2 = 0.6928 | 1035 | 1030 | 1025 | 1019 | 1243.5 | 1226.4 | 1206.5 | 1184.8
x2 = 0.8087 | 1101 | 1095 | 1089 | 1083 | 1227.5 | 1210.5 | 1190 | 1169
x2 = 0.9063 | 1170 | 1163 | 1157 | 1150 | 1216.7 | 1199 | 1179.2 | 1159.9

Cc1ccc(Cl)cc1 [4-chlorotoluene] + CCCCCCCCCO
Conditions | mass density, 293.15 K [kg/m3] | mass density, 298.15 K [kg/m3] | mass density, 303.15 K [kg/m3] | mass density, 308.15 K [kg/m3] | speed of sound, 293.15 K [m/s] | speed of sound, 298.15 K [m/s] | speed of sound, 303.15 K [m/s] | speed of sound, 308.15 K [m/s]
x1 = 0.0835 | 842 | 839 | 835 | 832 | 1376.5 | 1358.3 | 1346.4 | 1322.8
x1 = 0.1905 | 862 | 858 | 855 | 851 | 1369.2 | 1347.9 | 1334.9 | 1311.7
x1 = 0.2888 | 881 | 877 | 873 | 869 | 1360.5 | 1337.3 | 1323.5 | 1300.5
x1 = 0.3983 | 904 | 900 | 896 | 891 | 1350 | 1324.8 | 1310.6 | 1287.6
x1 = 0.4948 | 925 | 921 | 917 | 912 | 1340.2 | 1313.6 | 1298.7 | 1276.4
x1 = 0.594 | 949 | 945 | 940 | 935 | 1330 | 1303 | 1287.9 | 1266
x1 = 0.6925 | 974 | 970 | 965 | 960 | 1321 | 1294.2 | 1278.5 | 1257.4
x1 = 0.7952 | 1003 | 999 | 994 | 988 | 1313 | 1287.5 | 1271.4 | 1250.9
x1 = 0.899 | 1035 | 1031 | 1025 | 1020 | 1308 | 1284.9 | 1267.7 | 1248.9
x1 = 1 | 1069 | 1065 | 1060 | 1054 | 1306.4 | 1288.2 | 1270 | 1252.1
